EP0092073A1, “Magnesium salt of chenodeoxycholic acid and ursodeoxycholic acid, the process for its preparation, and therapeutic compositions which contain it as active principle” (SCHWARZ ITALIA S.p.A., priority 1982, dated 1983)

Experiments:
Format in all cases: in vivo
[1] = tested on: Mus musculus; assay: Acute lethality and toxicity, oral administration (gastric probe); set-up: key to Toxic symptomatology Type: NN = no symptomatology; D = depression; details: for % mortality at following times after administration 24 h / % mortality at following times after administration 7 days / Toxic symptomatology Type / Toxic symptomatology Latency: oral; for LD50 (mg/kg with reliability limits) 7 days after treatment: po, probit method
Description: (§1) Unless otherwise specified, the research was carried out using: a) Mg-UCD capsules as such; b) the powdered contents of Mg-UCD capsules; CDCA (chenodeoxycholic acid) and UDCA (ursodeoxycholic acid) as pure substance which in all cases was partly dissolved and partly suspended under warm conditions (T = 30°C) in 10% gum arabic mucilage (so as to administer 10-40 ml of liquid per kg orally). In certain cases, namely in the experiments involving parenteral administration, the active principle of Mg-UCD, the chenodeoxycholic acid and ursodeoxycholic acid were dissolved in distilled water of slightly alkaline pH (5-10 ml/kg).
(§2) The generally acute lethality, toxicity and tolerability were determined by oral administration of the Mg-UCD (by gastric probe) in the Mus musculus, rat and dog. Animals of both sexes were used, none of which were pregnant. They were fasted for about 12 hours before treatment (but allowing them free access to water). The investigations were carried out using the Mg-UCD in powder form. Comparative investigations were carried out on the rat and Mus musculus using the active principle by endoperitoneal administration, and chenodeoxycholic acid and ursodeoxycholic acid by oral administration (using a gastric probe). Each dose was administered to 20 rats or Mus musculus (10 male and 10 female) and to eight dogs (4 male and 4 female). The animals were observed attentively during the 7 days following administration, and any lethality, toxic symptoms, disturbances, functional variations determinable with the eye, behaviour etc. were noted.
(§3) The LD50 was determined 7 days after administration using the probit method.

[2] = tested on: rat; assay: as above; set-up: key to Toxic symptomatology Type: NN = no symptomatology; D = depression; details: for % mortality at following times after administration 24 h / % mortality at following times after administration 7 days / Toxic symptomatology Type / Toxic symptomatology Latency: oral; for LD50 (mg/kg with reliability limits) 7 days after treatment: po, probit method
Description: as §1, §2, §3

[3] = tested on: patients; assay: Controlled study in comparison with the free acids; tolerability in patients
[4] = tested on: hampsters; assay: Action on the formation of cholesterol calculi in the gall-bladder (cholesterol-enriched diet, 80 days); details: for % animals with calculi / % animals with crystals: cholesterol-enriched diet
Description: (§4) The investigations were carried out on hampsters (of female sex, but excluding those in a state of pregnancy) having an initial weight of 75-90 g. They were treated for 80 days with oral administration (by gastric probe) of MG-UCD (10-20 mg/kg/day), chenodeoxycholic acid (10-20 mg/kg/day) or ursodeoxycholic acid (10-20 mg/kg/day) (Tables 4 and 5). The animals were maintained for 80 consecutive days on a Nossan feed diet for rats, enriched with cholesterol (2 mg/g of food).
(§5) Each experimental group consisted of 10 units. After 80 days, the animals were narcotised with ethyl ether, and the bile was withdrawn, together with the calculi and crystals from the gall-bladder as described by Pearlman and coll. in Gastroenterology 77, 634 (1979).

[5] = tested on: hampsters; assay: Bile lipid and bile acid contents of the bile (cholesterol-enriched diet, 80 days)
Description: as §4, §5
The bile acid, phospholipid, cholesterol, cholic acid, chenodeoxycholic acid, ursodeoxycholic acid, DCA (deoxycholic acid) and LCA (lithocholic acid) contents were evaluated in the bile by the methods described by Pearlman and coll. (see above).

[6] = M. musculus F, 250 mg/kg (60 Dts/kg)
[7] = M. musculus F, 2500 mg/kg (600 Dts/kg)
[8] = M. musculus F, 5000 mg/kg (1200 Dts/kg)
[9] = M. musculus F, 10000 mg/kg (2400 Dts/kg)
[10] = M. musculus M, 250 mg/kg (60 Dts/kg)
[11] = M. musculus M, 2500 mg/kg (600 Dts/kg)
[12] = M. musculus M, 5000 mg/kg (1200 Dts/kg)
[13] = M. musculus M, 10000 mg/kg (2400 Dts/kg)
[14] = Rat F, 5000 mg/kg (1200 Dts/kg)
[15] = Rat F, 10000 mg/kg (2400 Dts/kg)
[16] = Rat M, 5000 mg/kg (1200 Dts/kg)
[17] = Rat M, 10000 mg/kg (2400 Dts/kg)
[18] = female hampsters, 10 mg/kg/day oral for 80 days
[19] = female hampsters, 20 mg/kg/day oral for 80 days

“double magnesium salt of chenodeoxycholic acid and ursodeoxycholic acid [Mg-UCD]” was tested, and the “% mortality at following times after administration 24 h” value (“% mortality … after administration 24 h” below) [1, 6] was 0%, the “% mortality at following times after administration 7 days” value [1, 6] was 0% and the “Toxic symptomatology Type” value [1, 6] was “NN”. The “% mortality … after administration 24 h” value [1, 7] was 0%, the “% mortality at following times after administration 7 days” value [1, 7] was 0% and the “Toxic symptomatology Latency” value [1, 7] was 5-10 min. The “Toxic symptomatology Type” value [1, 7] was “D”, the “% mortality … after administration 24 h” value [1, 8] was 0% and the “% mortality at following times after administration 7 days” value [1, 8] was 0%. The “Toxic symptomatology Latency” value [1, 8] was 5-10 min, the “Toxic symptomatology Type” value [1, 8] was “D” and the “% mortality … after administration 24 h” value [1, 9] was 10%. The “% mortality at following times after administration 7 days” value [1, 9] was 10%, the “Toxic symptomatology Latency” value [1, 9] was 5-10 min and the “Toxic symptomatology Type” value [1, 9] was “D”. The “LD50 (mg/kg with reliability limits) 7 days after treatment” value ([1]; M. musculus F) was 14011 (10884-18033) mg/kg, the “% mortality … after administration 24 h” value [1, 10] was 0% and the “% mortality at following times after administration 7 days” value [1, 10] was 0%. The “Toxic symptomatology Type” value [1, 10] was “NN”, the “% mortality … after administration 24 h” value [1, 11] was 0% and the “% mortality at following times after administration 7 days” value [1, 11] was 0%. The “Toxic symptomatology Latency” value [1, 11] was 5-10 min, the “Toxic symptomatology Type” value [1, 11] was “D” and the “% mortality … after administration 24 h” value [1, 12] was 0%. For the same substance, the “% mortality at following times after administration 7 days” value [1, 12] was 0%, the “Toxic symptomatology Latency” value [1, 12] was 5-10 min and the “Toxic symptomatology Type” value [1, 12] was “D”. For the same substance, the “% mortality … after administration 24 h” value [1, 13] was 10%, the “% mortality at following times after administration 7 days” value [1, 13] was 10% and the “Toxic symptomatology Latency” value [1, 13] was 5-10 min. The “Toxic symptomatology Type” value [1, 13] was “D”, the “LD50 (mg/kg with reliability limits) 7 days after treatment” value ([1]; M. musculus M) was 13100 (10515-16319) mg/kg and the “% mortality … after administration 24 h” value ([2]; Rat F, 250 mg/kg (60 Dts/kg)) was 0%. For the same substance, the “% mortality at following times after administration 7 days” value ([2]; Rat F, 250 mg/kg (60 Dts/kg)) was 0%, the “Toxic symptomatology Type” value ([2]; Rat F, 250 mg/kg (60 Dts/kg)) was “NN” and the “% mortality … after administration 24 h” value ([2]; Rat F, 2500 mg/kg (600 Dts/kg)) was 0%. The “% mortality at following times after administration 7 days” value ([2]; Rat F, 2500 mg/kg (600 Dts/kg)) was 0%, the “Toxic symptomatology Latency” value ([2]; Rat F, 2500 mg/kg (600 Dts/kg)) was 5-10 min and the “Toxic symptomatology Type” value ([2]; Rat F, 2500 mg/kg (600 Dts/kg)) was “D”. The “% mortality … after administration 24 h” value [2, 14] was 0%, the “% mortality at following times after administration 7 days” value [2, 14] was 0% and the “Toxic symptomatology Latency” value [2, 14] was 5-10 min. For the same substance, the “Toxic symptomatology Type” value [2, 14] was “D”, the “% mortality … after administration 24 h” value [2, 15] was 10% and the “% mortality at following times after administration 7 days” value [2, 15] was 10%. The “Toxic symptomatology Latency” value [2, 15] was 5-10 min, the “Toxic symptomatology Type” value [2, 15] was “D” and the “LD50 (mg/kg with reliability limits) 7 days after treatment” value ([2]; Rat F) was 13100 (10515-16319) mg/kg. For the same substance, the “% mortality … after administration 24 h” value ([2]; Rat M, 250 mg/kg (60 Dts/kg)) was 0%, the “% mortality at following times after administration 7 days” value ([2]; Rat M, 250 mg/kg (60 Dts/kg)) was 0% and the “Toxic symptomatology Type” value ([2]; Rat M, 250 mg/kg (60 Dts/kg)) was “NN”. For the same substance, the “% mortality … after administration 24 h” value ([2]; Rat M, 2500 mg/kg (600 Dts/kg)) was 0%, the “% mortality at following times after administration 7 days” value ([2]; Rat M, 2500 mg/kg (600 Dts/kg)) was 0% and the “Toxic symptomatology Latency” value ([2]; Rat M, 2500 mg/kg (600 Dts/kg)) was 5-10 min. The “Toxic symptomatology Type” value ([2]; Rat M, 2500 mg/kg (600 Dts/kg)) was “D”, the “% mortality … after administration 24 h” value [2, 16] was 0% and the “% mortality at following times after administration 7 days” value [2, 16] was 0%. For the same substance, the “Toxic symptomatology Latency” value [2, 16] was 5-10 min, the “Toxic symptomatology Type” value [2, 16] was “D” and the “% mortality … after administration 24 h” value [2, 17] was 10%. For the same substance, the “% mortality at following times after administration 7 days” value [2, 17] was 10%, the “Toxic symptomatology Latency” value [2, 17] was 5-10 min and the “Toxic symptomatology Type” value [2, 17] was “D”. For the same substance, the “LD50 (mg/kg with reliability limits) 7 days after treatment” value ([2]; Rat M) was 14011(10884-18033) mg/kg, the anti-dislipidemic effect ([3]; in particular hypotriglyceridemic, at much smaller doses than the individual bile acids) was “modest anti-dislipidemic effect” and the side effects ([3]; patients) was “No significant side effects”. For the same substance, the “effects compared with the free acids” value ([3]; relatively small doses of the salt against double doses of each acid administered separately) was “greater effects”, the “% animals with calculi” value [4, 18] was 20% and the “% animals with crystals” value [4, 18] was 20%. For the same substance, the “% animals with calculi” value [4, 19] was 0%, the “% animals with crystals” value [4, 19] was 0% and the “Body weight (g ± s.e.) after following days 80” value ([4]; female hampsters, day 80, oral, 10 mg/kg/day) was 152 ± 8 g. The “appearance of cholesterol calculi and crystals in the gall-bladder” value ([4]; hampster, oral, more intense than chenodeoxycholic acid or ursodeoxycholic acid) was “hinders the appearance of cholesterol calculi and crystals in the gall-bladder in a dose-dependent manner”, the “Bile acids (expressed as molar % ± s.e.) Cheno-deoxycholic acid” value ([5]; 10 mg/kg/day oral for 80 days) was 28.6 ± 2.9 molar % and the “Bile acids (expressed as molar % ± s.e.) Cholic acid” value ([5]; 10 mg/kg/day oral for 80 days) was 18.1 ± 2.6 molar %. The “Bile acids (expressed as molar % ± s.e.) DCA” value ([5]; 10 mg/kg/day oral for 80 days) was 13.4 ± 0.5 molar %, the “Bile acids (expressed as molar % ± s.e.) LCA” value ([5]; 10 mg/kg/day oral for 80 days) was 2.4 ± 0.1 molar % and the “Bile acids (expressed as molar % ± s.e.) Urso-deoxycholic acid” value ([5]; 10 mg/kg/day oral for 80 days) was 21.7 ± 2.9 molar %. The “Bile lipids (expressed as molar % ± s.e.) Bile acids” value ([5]; 10 mg/kg/day oral for 80 days) was 78.6 ± 5.3 molar %, the “Bile lipids (expressed as molar % ± s.e.) Cholesterol” value ([5]; 10 mg/kg/day oral for 80 days) was 6.9 ± 0.4 molar % and the “Bile lipids (expressed as molar % ± s.e.) Phospho-lipids” value ([5]; 10 mg/kg/day oral for 80 days) was 15.6 ± 1.7 molar %. For the same substance, the “Bile acids (expressed as molar % ± s.e.) Cheno-deoxycholic acid” value ([5]; 20 mg/kg/day oral for 80 days) was 24.4 ± 3.1 molar %, the “Bile acids (expressed as molar % ± s.e.) Cholic acid” value ([5]; 20 mg/kg/day oral for 80 days) was 11.4 ± 1.7 molar % and the “Bile acids (expressed as molar % ± s.e.) DCA” value ([5]; 20 mg/kg/day oral for 80 days) was 10.5 ± 0.4 molar %. The “Bile acids (expressed as molar % ± s.e.) LCA” value ([5]; 20 mg/kg/day oral for 80 days) was 3.6 ± 0.2 molar %, the “Bile acids (expressed as molar % ± s.e.) Urso-deoxycholic acid” value ([5]; 20 mg/kg/day oral for 80 days) was 54.9 ± 3.6 molar % and the “Bile lipids (expressed as molar % ± s.e.) Bile acids” value ([5]; 20 mg/kg/day oral for 80 days) was 80.7 ± 4.7 molar %. For the same substance, the “Bile lipids (expressed as molar % ± s.e.) Cholesterol” value ([5]; 20 mg/kg/day oral for 80 days) was 4.7 ± 0.3 molar % and the “Bile lipids (expressed as molar % ± s.e.) Phospho-lipids” value ([5]; 20 mg/kg/day oral for 80 days) was 14.7 ± 1.9 molar %.
